Test results from patent US4699910A, “N-(3-trifluoromethyl-phenyl)-N'-propargyl-piperazine and salts thereof useful as analgesics” (Boehringer Ingelheim KG, priority 1983, dated 1987).

What was measured:
Type in all cases: in vivo
Rabbit's tooth pulp = Rabbit's tooth pulp test (analgesia); conditions: s.c.
Description: 3. Rabbit's tooth pulp test
Hoffmeister, F., Arzneimittelf. 16 (supplement), 1968.

[1] = Writhing test (analgesia)
Gait test (analgesia) = conditions: sc
Description: Atkinson, D. C., and Cowan, A. J., Pharm. Pharmacol. 26, 727-728 (1974)

[2] = po, read-out: Writhing test ED50 p.o.
[3] = sc, read-out: Writhing test ED50 s.c.

Structure (SMILES) | Rabbit's tooth pulp test EDIV (Rabbit's tooth pulp) | ED50 [1, 2] | ED50 [1, 3] | ED50 (Gait test (analgesia))
C#CCN1CCN(c2cccc(C(F)(F)F)c2)CC1.Cl [N-(3-Trifluoromethyl-phenyl)-N'-propargyl-piperazine hydrochloride] | approx. 10 | 43 mg/kg | 5.3 mg/kg | 2.8 mg/kg
Cc1c(N(C)CS(=O)(=O)O)c(=O)n(-c2ccccc2)n1C [Metamizole-sodium (Novalgin ®)] | approx. 560 | 80 mg/kg | 25 mg/kg | 97 mg/kg
